Measurements from ChEMBL document CHEMBL5365456, “Isolation and biological activity of natural chalcones based on antibacterial mechanism classification” (Bioorg Med Chem, 2023).
≈ marks a conversion by molar mass, not a printed value.

Key:
[1] = tested on: Escherichia coli; assay: Antibiofilm activity against Escherichia coli 0157:H7 at 6.25 uM incubated for 24 hr by crystal violet staining based assay relative to control; type: functional
[2] = tested on: Escherichia coli; assay: Antibiofilm activity against Escherichia coli 0157:H7 at 200 uM incubated for 24 hr by crystal violet staining based assay relative to control; type: functional
[3] = Inhibition of Escherichia coli 0157:H7 AI-2 incubated for 3.5 hrs in dark condition by microplate reader analysis
[4] = tested on: Staphylococcus aureus; assay: Antibiofilm activity against Staphylococcus aureus 6538 at 0.78 ug/ml incubated for 24 hr by crystal violet staining based assay relative to control; type: functional
[5] = tested on: Clostridioides difficile; assay: Antibacterial activity against Clostridium difficile ATCC 43255 assessed as bacterial growth inhibition incubated for 24 hrs by two-fold serial dilution method; type: functional
[6] = tested on: Bacillus subtilis; assay: Bactericidal activity against Bacillus subtilis as by CLSI-based micro broth dilution method; type: functional
[7] = tested on: Staphylococcus aureus; assay: Antibacterial activity against Staphylococcus aureus ATCC 29213 assessed as bacterial growth inhibition incubated for 18 hrs by CLSI-based broth microdilution method; type: functional
[8] = tested on: Staphylococcus aureus; assay: Antibiofilm activity against Staphylococcus aureus 6538 incubated for 24 hr by crystal violet staining based assay; type: functional
[9] = tested on: Staphylococcus aureus; assay: Antibiofilm activity against Staphylococcus aureus BAA44 incubated for 24 hr by crystal violet staining based assay; type: functional
[10] = tested on: Staphylococcus aureus; assay: Antibacterial activity against Staphylococcus aureus MSSA1 assessed bacterial growth inhibition by CLSI-based broth microdilution method; type: functional
[11] = tested on: Staphylococcus aureus; assay: Antibiofilm activity against Staphylococcus aureus BAA44 at 0.78 ug/ml incubated for 24 hr by crystal violet staining based assay relative to control; type: functional
[12] = tested on: Staphylococcus xylosus; assay: Antibacterial activity against Staphylococcus xylosus ATCC 700404 assessed bacterial growth inhibition incubated for 24 hrs by Broth microdilution method; type: functional
[13] = Inhibition of FAS1 in Mycobacterium smegmatis mc2 155 transfected with pVV16 vector expressing Rv0636 by BCA assay; set-up: species or system Mycolicibacterium smegmatis
[14] = Inhibition of FAS2 in Mycobacterium smegmatis mc2 155 transfected with pVV16 vector by BCA assay; set-up: species or system Mycolicibacterium smegmatis
[15] = Inhibition of FAS1 in Mycobacterium smegmatis mc2 155 transfected with pVV16 vector by BCA assay; set-up: species or system Mycolicibacterium smegmatis
[16] = Inhibition of His-tagged Escherichia coli ANS1 FabG using acetoacetyl-CoA as substrate by spectrometric analysis
[17] = tested on: Staphylococcus xylosus; assay: Inhibition of Staphylococcus xylosus ATCC 700404 IGPD at 40 ug/ml relative to control; conditions: dose 40.0 µg/ml
[18] = Inhibition of His-tagged Escherichia coli ANS1 Fab1 using trans-2-octanoyl-N-acetylcysteamine as substrate by spectrometric analysis
[19] = Inhibition of FAS2 in Mycobacterium smegmatis mc2 155 transfected with pVV16 vector expressing Rv0636 by BCA assay; set-up: species or system Mycolicibacterium smegmatis
[20] = tested on: Staphylococcus xylosus; assay: Antibiofilm activity against Staphylococcus xylosus ATCC 700404 at 20 ug/ml incubated for 24 hr by crystal violet staining based assay relative to control; type: functional
[21] = tested on: Escherichia coli; assay: Antibacterial activity against Escherichia coli ANS1 assessed as bacterial growth inhibition incubated for 20 hrs by broth microdilution method; type: functional
[22] = tested on: Staphylococcus aureus; assay: Inhibition of Staphylococcus aureus ATCC 6538 Catalase at 7.81 ug/ml relative to control; conditions: dose 7.81 µg/ml
[23] = tested on: Cutibacterium acnes; assay: Antibacterial activity against Propionibacterium acnes KCTC3314 assessed as bacterial growth inhibition incubated for 48 hrs by broth microdilution assay; type: functional
[24] = tested on: Escherichia coli; assay: Antibiofilm activity against Escherichia coli 0157:H7 at 50 ug/ml incubated for 10 hrs by crystal violet staining based assay relative to control; type: functional
[25] = tested on: Cutibacterium acnes; assay: Antibacterial activity against Propionibacterium acnes KCTC5527 assessed as bacterial growth inhibition incubated for 48 hrs by broth microdilution assay; type: functional
[26] = tested on: Micrococcus luteus; assay: Antibacterial activity against Micrococcus luteus assessed bacterial growth inhibition by CLSI-based micro broth dilution method; type: functional
[27] = tested on: Pectobacterium brasiliense; assay: Antibiofilm activity against Pectobacterium brasiliense Pb1692 at 0.4 ug/ml incubated for 72 hr by crystal violet staining based assay relative to control; type: functional
[28] = tested on: Staphylococcus aureus; assay: Antibacterial activity against Staphylococcus aureus BAA 1717 assessed as bacterial growth inhibition by CLSI-based broth micro-dilution method; type: functional
[29] = tested on: Staphylococcus aureus; assay: Antibiofilm activity against Staphylococcus aureus SA1199B at 128 ug/ml incubated for 18 to 24 hrs by broth microdilution method relative to control; type: functional; conditions: time 18-24 hrs
[30] = tested on: Mycobacterium tuberculosis; assay: Antitubercular activity against Mycobacterium tuberculosis H37Rv assessed as bacterial growth inhibition measured for 9 days; type: functional; conditions: 216 h, time 9 day
[31] = tested on: Staphylococcus aureus; assay: Antibacterial activity against Staphylococcus aureus Newman assessed as bacterial growth inhibition by CLSI-based broth micro-dilution method; type: functional
[32] = tested on: Candida albicans; assay: Antifungal activity against Candida albicans SC5314 assessed as fungal growth inhibition incubated for 48 hrs by CLSI-based two-fold serial dilution method; type: functional
[33] = tested on: Staphylococcus aureus; assay: Inhibition of Staphylococcus aureus ATCC 6538 LDH at 7.81 ug/ml relative to control; conditions: dose 7.81 µg/ml
[34] = tested on: Candida albicans; assay: Antibiofilm activity against Candida albicans ATCC SC5314 at 74.55 ug/ml incubated for 24 hr by crystal violet staining based assay relative to control; type: functional
[35] = tested on: Klebsiella pneumoniae; assay: Antibacterial activity against Klebsiella pneumoniae assessed bacterial growth inhibition by CLSI-based micro broth dilution method; type: functional
[36] = tested on: Candida albicans; assay: Inhibition of Candida albicans SC5314 hyphal transition at 74.55 ug/ml incubated for 24 hrs relative to control; type: functional
[37] = tested on: Streptococcus pyogenes; assay: Antibacterial activity against Streptococcus pyogenes ATCC 19615 assessed bacterial growth inhibition incubated for 24 hrs by double dilution method; type: functional
[38] = tested on: Staphylococcus aureus; assay: Inhibition of Staphylococcus aureus ATCC 6538 IDH at 7.81 ug/ml relative to control; conditions: dose 7.81 µg/ml
[39] = tested on: Mycobacterium tuberculosis; assay: Antitubercular activity against XDR Mycobacterium tuberculosis X24 assessed as bacterial growth inhibition measured for 9 days; type: functional; conditions: X24, 216 h, time 9 day
[40] = molecular target: T1, Sortase B (Staphylococcus aureus, UniProt Q2FZE3); assay: Inhibition of Staphylococcus aureus sortase b transpeptidation expressed in Escherichia coli BL21 (DE3) cells using Fluorescent peptide as substrate at 16 ug/ml preincubated for 30 mins followed by substrate addition and measured for 1 hr by FRET assay
T1 sequence (Q2FZE3 whole entry): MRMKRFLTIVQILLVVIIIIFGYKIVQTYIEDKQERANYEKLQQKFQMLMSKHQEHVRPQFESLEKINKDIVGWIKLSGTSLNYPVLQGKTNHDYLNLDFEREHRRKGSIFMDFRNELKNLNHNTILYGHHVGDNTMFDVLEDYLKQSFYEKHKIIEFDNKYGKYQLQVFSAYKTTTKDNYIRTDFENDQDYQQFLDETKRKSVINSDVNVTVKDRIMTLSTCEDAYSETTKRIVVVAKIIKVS

[41] = tested on: Staphylococcus aureus; assay: Antibiofilm activity against Staphylococcus aureus RN4220 at 1 ug/ml incubated for 18 to 24 hrs by broth microdilution method relative to control; type: functional; conditions: time 18-24 hrs
[42] = tested on: Cutibacterium acnes; assay: Antibacterial activity against Propionibacterium acnes KCTC3220 assessed as bacterial growth inhibition incubated for 48 hrs by broth microdilution assay; type: functional
[43] = tested on: Staphylococcus aureus; assay: Antibacterial activity against Staphylococcus aureus BAA 1707 assessed as bacterial growth inhibition by CLSI-based broth micro-dilution method; type: functional
[44] = tested on: Cutibacterium acnes; assay: Antibacterial activity against Propionibacterium acnes KCTC5933 assessed as bacterial growth inhibition incubated for 48 hrs by broth microdilution assay; type: functional
[45] = tested on: Staphylococcus aureus; assay: Antibacterial activity against Staphylococcus aureus ATCC 29213 assessed as bacterial growth inhibition by CLSI-based broth micro-dilution method; type: functional
[46] = tested on: Staphylococcus aureus; assay: Antibiofilm activity against Staphylococcus aureus SA1199B incubated for 18 to 24 hrs by broth microdilution method; type: functional; conditions: time 18-24 hrs
[47] = tested on: Escherichia coli; assay: Antibiofilm activity against Escherichia coli 0157:H7 at 25 ug/ml incubated for 10 hrs by crystal violet staining based assay relative to control; type: functional
[48] = tested on: Candida albicans; assay: Antifungal activity against Candida albicans SC5314 assessed as fungal growth inhibition incubated for 48 hrs by CLSI protocol based assay; type: functional
[49] = tested on: Staphylococcus aureus; assay: Antibacterial activity against Staphylococcus aureus ATCC 6538 assessed bacterial growth inhibition incubated for 24 hrs by CLSI-based broth dilution method; type: functional
[50] = tested on: Mycobacterium tuberculosis; assay: Antitubercular activity against XDR Mycobacterium tuberculosis X59 assessed as bacterial growth inhibition measured for 9 days; type: functional; conditions: X59, 216 h, time 9 day
[51] = tested on: Streptococcus pyogenes; assay: Antibiofilm activity against Streptococcus pyogenes ATCC 19615 at 23.4 ug/ml incubated for 1 hr by crystal violet staining based assay relative to control; type: functional; conditions: dose 23.4 µg/ml
[52] = tested on: Staphylococcus aureus; assay: Antibacterial activity against Staphylococcus aureus ATCC 25923 assessed as bacterial growth inhibition by CLSI-based broth micro-dilution method; type: functional
[53] = tested on: Staphylococcus aureus; assay: Antibiofilm activity against Staphylococcus aureus RN4220 incubated for 18 to 24 hrs by broth microdilution method; type: functional; conditions: time 18-24 hrs
[54] = tested on: Listeria monocytogenes; assay: Antibiofilm activity against Listeria monocytogenes CMCC 54004 at 20 ug/ml by crystal violet staining based assay relative to control; type: functional
[55] = tested on: Staphylococcus aureus; assay: Antibacterial activity against Staphylococcus aureus 8325-4 assessed as bacterial growth inhibition by CLSI-based broth micro-dilution method; type: functional
[56] = tested on: Staphylococcus aureus; assay: Antibiofilm activity against Staphylococcus aureus RN4220 at 8 to 256 ug/ml incubated for 18 to 24 hrs by broth microdilution method relative to control; type: functional; conditions: dose 8-256 µg/ml; time 18-24 hrs; at 8 to 256 µg/mL

For `COc1cc(O)ccc1/C=C/C(=O)c1ccc(O)cc1` [ECHINATIN], the inhibition at 6.25 µM [1] was 40%, the inhibition at 200 µM [2] was 71.5% and the IC50 [3] was 21.7 µM.
`CC(C)=CCc1c(O)ccc(C(=O)/C=C/c2ccc(O)cc2)c1O` [ISOBAVACHALCONE] showed an inhibition at 0.78 µg/mL [4] of 75%, an MIC [5] of 4 µg/mL (≈ 12.3 µM) and an MBC [6] of 4 µg/mL (≈ 12.3 µM). For the same molecule, the MIC [7] was 4 µg/mL (≈ 12.3 µM), the MBIC [8] was 0.78 µg/mL and the MBIC [9] was 0.78 µg/mL. For the same molecule, the MIC [10] was 0.5 µg/mL (≈ 1.54 µM) and the inhibition at 0.78 µg/mL [11] was 80%.
With `O=C(/C=C/c1ccc(O)cc1)c1ccc(O)cc1O` [ISOLIQUIRITIGENIN] the MIC [12] was 80 µg/mL (≈ 312 µM), the IC50 [13] was 96 µg/mL (≈ 375 µM) and the IC50 [14] was 7 µg/mL (≈ 27.3 µM). It also gave an IC50 [15] of 96 µg/mL (≈ 375 µM), an IC50 [16] of 20 µM and an inhibition [17] of 60%. For the same molecule, the IC50 [18] was 40 µM, the IC50 [19] was 17 µg/mL (≈ 66.3 µM) and the inhibition at 20 µg/mL [20] was 45%. The MIC [21] was 25 µM (≈ 6.41 µg/mL).
Molecule `O=C(CCc1ccc(O)cc1)c1c(O)cc(O)cc1O` [PHLORETIN] has an inhibition [22] of 30%, an MIC [23] of 16 µM (≈ 4.39 µg/mL) and an inhibition at 50 µg/mL [24] of 93%. The MIC [25] was 16 µM (≈ 4.39 µg/mL), the MIC50 [26] was 230 µM (≈ 63.1 µg/mL) and the inhibition at 0.4 µg/mL [27] was > 60%. For the same molecule, the MIC [28] was 128 µg/mL (≈ 467 µM), the inhibition at 128 µg/mL [29] was ≥ 50% and the MIC90 [30] was 182 µM (≈ 49.9 µg/mL). For the same molecule, the MIC [31] was 128 µg/mL (≈ 467 µM), the MIC [32] was 74.5 µg/mL (≈ 272 µM) and the inhibition [33] was 20%. The inhibition at 74.55 µg/mL [34] was 76%, the MIC50 [35] was 410 µM (≈ 112 µg/mL) and the inhibition at 74.55 µg/mL [36] was 80%. The MIC [37] was 46.8 µg/mL (≈ 171 µM), the inhibition [38] was 60% and the MIC90 [39] was 182 µM (≈ 49.9 µg/mL). The IC50 [40] was 35.5 µM, the inhibition at 1 µg/mL [41] was 60% and the MIC [42] was 16 µM (≈ 4.39 µg/mL). For the same molecule, the MIC [43] was 128 µg/mL (≈ 467 µM), the MIC [44] was 16 µM (≈ 4.39 µg/mL) and the MIC [45] was 128 µg/mL (≈ 467 µM). For the same molecule, the MBIC50 [46] was 256 µg/mL, the inhibition at 25 µg/mL [47] was 89% and the MIC [48] was 74.5 µg/mL (≈ 272 µM). For the same molecule, the MIC [49] was 7.81 µg/mL (≈ 28.5 µM), the MIC90 [50] was 182 µM (≈ 49.9 µg/mL) and the inhibition (INH) [51] was 46.4%. For the same molecule, the MIC [52] was 128 µg/mL (≈ 467 µM), the MBIC50 [53] was 1 µg/mL and the inhibition at 20 µg/mL [54] was 60%. For the same molecule, the MIC [55] was 128 µg/mL (≈ 467 µM), the IC50 [3] was 62.5 µM and the “inhibition (INH)” value [56] was >70%.
